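Dose response: 5 concentrations. Exposure: 48 h. Format: 96-well plates. Endpoint: linear interpolation; highest concentration if not reached. Abbreviation: GI50, concentration required for 50% inhibition of growth. Definition used: TGI = concentration required for complete inhibition of growth.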
Assays:
Experiment in all cases: NCI anticancer screen, dose series, 48 h
U251 CNS = tested on: U251 CNS
K-562 leukemia = tested on: K-562 leukemia
UACC-257 melanoma = tested on: UACC-257 melanoma
HT29 colon = tested on: HT29 colon
OVCAR-8 ovarian = tested on: OVCAR-8 ovarian
UACC-62 melanoma = tested on: UACC-62 melanoma
SK-MEL-5 melanoma = tested on: SK-MEL-5 melanoma
ACHN renal = tested on: ACHN renal
HCT-15 colon = tested on: HCT-15 colon
NCI-H226 lung = tested on: NCI-H226 lung
786-0 renal = tested on: 786-0 renal
SK-OV-3 ovarian = tested on: SK-OV-3 ovarian
MCF7 breast = tested on: MCF7 breast
RPMI-8226 leukemia = tested on: RPMI-8226 leukemia
T-47D breast = tested on: T-47D breast
OVCAR-5 ovarian = tested on: OVCAR-5 ovarian
MALME-3M melanoma = tested on: MALME-3M melanoma
PC-3 prostate = tested on: PC-3 prostate
SW-620 colon = tested on: SW-620 colon
HOP-62 NSCLC = tested on: HOP-62 NSCLC
SK-MEL-28 melanoma = tested on: SK-MEL-28 melanoma
HS 578T breast = tested on: HS 578T breast
EKVX NSCLC = tested on: EKVX NSCLC
UO-31 renal = tested on: UO-31 renal
HOP-92 NSCLC = tested on: HOP-92 NSCLC
BT-549 breast = tested on: BT-549 breast
SF-295 CNS = tested on: SF-295 CNS
MDA-MB-435 = tested on: MDA-MB-435
MDA-MB-231 breast = tested on: MDA-MB-231 breast
NCI-H23 lung = tested on: NCI-H23 lung
SK-MEL-2 melanoma = tested on: SK-MEL-2 melanoma
HL-60(TB) leukemia = tested on: HL-60(TB) leukemia
CAKI-1 renal = tested on: CAKI-1 renal
NCI-H460 lung = tested on: NCI-H460 lung
NCI-H522 lung = tested on: NCI-H522 lung
OVCAR-3 ovarian = tested on: OVCAR-3 ovarian
RXF 393 renal = tested on: RXF 393 renal
SR leukemia = tested on: SR leukemia
A498 renal = tested on: A498 renal
COLO 205 colon = tested on: COLO 205 colon
IGROV1 ovarian = tested on: IGROV1 ovarian
A549 NSCLC = tested on: A549 NSCLC
SNB-19 CNS = tested on: SNB-19 CNS
SF-268 CNS = tested on: SF-268 CNS
OVCAR-4 ovarian = tested on: OVCAR-4 ovarian
LOX IMVI melanoma = tested on: LOX IMVI melanoma
SN12C renal = tested on: SN12C renal
SF-539 CNS = tested on: SF-539 CNS
MOLT-4 leukemia = tested on: MOLT-4 leukemia
HCT-116 colon = tested on: HCT-116 colon
KM12 colon = tested on: KM12 colon
NCI/ADR-RES ovarian = tested on: NCI/ADR-RES ovarian
DU-145 prostate = tested on: DU-145 prostate
M14 melanoma = tested on: M14 melanoma
SNB-75 CNS = tested on: SNB-75 CNS
HCC-2998 colon = tested on: HCC-2998 colon
CCRF-CEM leukemia = tested on: CCRF-CEM leukemia

SMILES: CCN(Cc1cccc(F)c1)c1ccc(CO)c(Cl)c1
- GI50 (U251 CNS): 1.01 µM
- TGI (U251 CNS): 26.5 µM
- GI50 (K-562 leukemia): 3.54 µM
- TGI (K-562 leukemia): > 100 µM
- GI50 (UACC-257 melanoma): 0.114 µM
- TGI (UACC-257 melanoma): 0.344 µM
- GI50 (HT29 colon): 3.42 µM
- TGI (HT29 colon): > 51.4 µM
- GI50 (OVCAR-8 ovarian): 17.3 µM
- TGI (OVCAR-8 ovarian): > 60.9 µM
- GI50 (UACC-62 melanoma): 0.0741 µM
- TGI (UACC-62 melanoma): 0.649 µM
- GI50 (SK-MEL-5 melanoma): 3.86 µM
- TGI (SK-MEL-5 melanoma): 20.4 µM
- GI50 (ACHN renal): 29.4 µM
- TGI (ACHN renal): > 100 µM
- GI50 (HCT-15 colon): 14.5 µM
- TGI (HCT-15 colon): > 100 µM
- GI50 (NCI-H226 lung): 0.0467 µM
- TGI (NCI-H226 lung): 0.18 µM
- GI50 (786-0 renal): 10.5 µM
- TGI (786-0 renal): 30.3 µM
- GI50 (SK-OV-3 ovarian): 6.68 µM
- TGI (SK-OV-3 ovarian): 36.3 µM
- GI50 (MCF7 breast): 0.216 µM
- TGI (MCF7 breast): 17.8 µM
- GI50 (RPMI-8226 leukemia): 5.98 µM
- TGI (RPMI-8226 leukemia): > 56 µM
- GI50 (T-47D breast): 0.148 µM
- TGI (T-47D breast): 0.662 µM
- GI50 (OVCAR-5 ovarian): 0.148 µM
- TGI (OVCAR-5 ovarian): 0.605 µM
- GI50 (MALME-3M melanoma): 20 µM
- TGI (MALME-3M melanoma): 50.1 µM
- GI50 (PC-3 prostate): 21.8 µM
- TGI (PC-3 prostate): > 82.5 µM
- GI50 (SW-620 colon): 0.808 µM
- TGI (SW-620 colon): > 100 µM
- GI50 (HOP-62 NSCLC): 1.02 µM
- TGI (HOP-62 NSCLC): > 37.6 µM
- GI50 (SK-MEL-28 melanoma): 16.2 µM
- TGI (SK-MEL-28 melanoma): 45.5 µM
- GI50 (HS 578T breast): 19.5 µM
- TGI (HS 578T breast): 74.4 µM
- GI50 (EKVX NSCLC): 22.3 µM
- TGI (EKVX NSCLC): > 76 µM
- GI50 (UO-31 renal): 5.09 µM
- TGI (UO-31 renal): 58.7 µM
- GI50 (HOP-92 NSCLC): 1.86 µM
- TGI (HOP-92 NSCLC): 20.8 µM
- GI50 (BT-549 breast): 11 µM
- TGI (BT-549 breast): 28.3 µM
- GI50 (SF-295 CNS): 1.21 µM
- TGI (SF-295 CNS): > 45.3 µM
- GI50 (MDA-MB-435): 18.2 µM
- TGI (MDA-MB-435): 55.1 µM
- GI50 (MDA-MB-231 breast): 19 µM
- TGI (MDA-MB-231 breast): > 55.3 µM
- GI50 (NCI-H23 lung): 10.8 µM
- TGI (NCI-H23 lung): 74.4 µM
- GI50 (SK-MEL-2 melanoma): 4.54 µM
- TGI (SK-MEL-2 melanoma): 25.1 µM
- GI50 (HL-60(TB) leukemia): 19.6 µM
- TGI (HL-60(TB) leukemia): > 69.8 µM
- GI50 (CAKI-1 renal): 0.907 µM
- TGI (CAKI-1 renal): > 36.3 µM
- GI50 (NCI-H460 lung): 0.306 µM
- TGI (NCI-H460 lung): 18 µM
- GI50 (NCI-H522 lung): 19.2 µM
- TGI (NCI-H522 lung): 58.6 µM
- GI50 (OVCAR-3 ovarian): 0.711 µM
- TGI (OVCAR-3 ovarian): 6.71 µM
- GI50 (RXF 393 renal): 5.28 µM
- TGI (RXF 393 renal): 27.8 µM
- GI50 (SR leukemia): 27.3 µM
- TGI (SR leukemia): > 70.3 µM
- GI50 (A498 renal): 0.0356 µM
- TGI (A498 renal): 0.169 µM
- GI50 (COLO 205 colon): 1.57 µM
- TGI (COLO 205 colon): 4.85 µM
- GI50 (IGROV1 ovarian): 0.0779 µM
- TGI (IGROV1 ovarian): 1.15 µM
- GI50 (A549 NSCLC): 2.31 µM
- TGI (A549 NSCLC): 35 µM
- GI50 (SNB-19 CNS): 21.8 µM
- TGI (SNB-19 CNS): > 92.6 µM
- GI50 (SF-268 CNS): 29.9 µM
- TGI (SF-268 CNS): > 82.8 µM
- GI50 (OVCAR-4 ovarian): 0.318 µM
- TGI (OVCAR-4 ovarian): 15.1 µM
- GI50 (LOX IMVI melanoma): 14.1 µM
- TGI (LOX IMVI melanoma): 28.8 µM
- GI50 (SN12C renal): 14.6 µM
- TGI (SN12C renal): > 50.5 µM
- GI50 (SF-539 CNS): 23.8 µM
- TGI (SF-539 CNS): 63.5 µM
- GI50 (MOLT-4 leukemia): 25.2 µM
- TGI (MOLT-4 leukemia): > 74.5 µM
- GI50 (HCT-116 colon): 0.0674 µM
- TGI (HCT-116 colon): 5.85 µM
- GI50 (KM12 colon): 22.1 µM
- TGI (KM12 colon): > 68.7 µM
- GI50 (NCI/ADR-RES ovarian): 15.9 µM
- TGI (NCI/ADR-RES ovarian): 53.6 µM
- GI50 (DU-145 prostate): 26.9 µM
- TGI (DU-145 prostate): > 100 µM
- GI50 (M14 melanoma): 19.2 µM
- TGI (M14 melanoma): 66.8 µM
- GI50 (SNB-75 CNS): 12 µM
- TGI (SNB-75 CNS): 54 µM
- GI50 (HCC-2998 colon): 10.7 µM
- TGI (HCC-2998 colon): 35.5 µM
- GI50 (CCRF-CEM leukemia): 24 µM
- TGI (CCRF-CEM leukemia): > 80.7 µM

Reference: PubChem BioAssay (NCI)
